{"source": "paper PMC8139662", "about": "(Journal of Virology, 2021)", "system": "polarized human airway epithelial cultures (HAEC)", "data": [{"smiles": "COc1cccc2[nH]c(C(=O)N[C@@H](CC(C)C)C(=O)N[C@@H](C[C@@H]3CCNC3=O)C(=O)CO)cc12", "note": "[PF-00835231]", "values": [{"measurement": "effect on transepithelial resistance (TEER) over time", "value": "we did not observe this trend"}]}]}
